Reference: patent EP0818464B1, “Methylsulfomycin l, a process for its production and its use” (HOECHST AKTIENGESELLSCHAFT, priority 1996, dated 1998)

Assays:
Assay in all cases: MIC by agar dilution method
Assay type in all cases: cell-based
S. aureus E-88 = test system: S. aureus E-88
From the text: (§1) The minimum inhibitory concentration (MIC) against different test strains, determined by agar dilution method in the known manner, are given in Table 2.

S. epi. 823 (T^R) = settings: Teicoplanin resistant
From the text: as §1

[1] = test system: Ent. faecium R-2 (V^R,T^R); settings: Vancomycin resistant, Teicoplanin resistant
From the text: as §1

Ent. faecalis 4045H = test system: Ent. faecalis 4045H
From the text: as §1

S. aureus Chantot 31153 = test system: S. aureus Chantot 31153
From the text: as §1

Ent. hirae 55 = test system: Ent. hirae 55
From the text: as §1

S. aureus Brussels 810 = test system: S. aureus Brussels 810
From the text: as §1

S. epi. 32965 = test system: S. epi. 32965
From the text: as §1

S. aureus 20240 = test system: S. aureus 20240
From the text: as §1

Ent. equinus (V^R,T^R) = settings: Vancomycin resistant, Teicoplanin resistant
From the text: as §1

[2] = test system: Ent. faecium P-2 (V^R,T^R); settings: Vancomycin resistant, Teicoplanin resistant
From the text: as §1

[3] = test system: Ent. faecium P-1 (V^R,T^R); settings: Vancomycin resistant, Teicoplanin resistant
From the text: as §1

Escherichia coli 2231 = test system: Escherichia coli 2231
From the text: as §1

S. haemo. 712 (T^S) = settings: Teicoplanin sensitive
From the text: as §1

S. haemo. 712 (T^R) = settings: Teicoplanin resistant
From the text: as §1

S. aureus Brussels 4115 = test system: S. aureus Brussels 4115
From the text: as §1

S. aureus E 710 = test system: S. aureus E 710
From the text: as §1

Ent. faecium D-65 = test system: Ent. faecium D-65
From the text: as §1

[4] = test system: Ent faecalis durans 4931 H
From the text: as §1

[5] = test system: Ent. faecium R-1 (V^R,T^R); settings: Vancomycin resistant, Teicoplanin resistant
From the text: as §1

S. epi. 5747 IIW = test system: S. epi. 5747 IIW
From the text: as §1

S. aureus 20424 = test system: S. aureus 20424
From the text: as §1

S. epi 6026 = test system: S. epi 6026
From the text: as §1

S. epi. 8 Schah = test system: S. epi. 8 Schah
From the text: as §1

S. aureus 3066 = S. aureus 3066 (resistant to methicillin)
From the text: as §1

S. epi. 825 (T^S) = settings: Teicoplanin sensitive
From the text: as §1

S. aureus E 712 = test system: S. aureus E 712
From the text: as §1

[6] = test system: Enterococcus faecalis ATCC 29212
From the text: as §1

S. aureus Wein 11 = test system: S. aureus Wein 11
From the text: as §1

[7] = test system: Staphylococcus aureus 209P
From the text: as §1

S. aureus Wein 12 = test system: S. aureus Wein 12
From the text: as §1

S. epi. 109 = test system: S. epi. 109
From the text: as §1

Ent. faecalis D-7F = test system: Ent. faecalis D-7F
From the text: as §1

methylsulfomycin I
MIC (S. aureus E-88): 0.125 µg/mL
MIC (S. epi. 823 (T^R)): 0.125 µg/mL
MIC [1]: 0.125 µg/mL
MIC (Ent. faecalis 4045H): 0.125 µg/mL
MIC (S. aureus Chantot 31153): 0.125 µg/mL
MIC (Ent. hirae 55): 0.125 µg/mL
MIC (S. aureus Brussels 810): 0.125 µg/mL
MIC (S. epi. 32965): 0.125 µg/mL
MIC (S. aureus 20240): 0.125 µg/mL
MIC (Ent. equinus (V^R,T^R)): 0.125 µg/mL
MIC [2]: 0.125 µg/mL
MIC [3]: 0.125 µg/mL
MIC (Escherichia coli 2231): > 100 µg/mL
MIC (S. haemo. 712 (T^S)): 0.125 µg/mL
MIC (S. haemo. 712 (T^R)): 0.125 µg/mL
MIC (S. aureus Brussels 4115): 0.125 µg/mL
MIC (S. aureus E 710): 0.125 µg/mL
MIC (Ent. faecium D-65): 0.125 µg/mL
MIC [4]: 0.125 µg/mL
MIC [5]: 0.125 µg/mL
MIC (S. epi. 5747 IIW): 0.125 µg/mL
MIC (S. aureus 20424): 0.125 µg/mL
MIC (S. epi 6026): 0.125 µg/mL
MIC (S. epi. 8 Schah): 0.125 µg/mL
MIC (S. aureus 3066): 0.125 µg/mL
MIC (S. epi. 825 (T^S)): 0.125 µg/mL
MIC (S. aureus E 712): 0.125 µg/mL
MIC [6]: 0.125 µg/mL
MIC (S. aureus Wein 11): 0.125 µg/mL
MIC [7]: 0.06 µg/mL
MIC (S. aureus Wein 12): 0.125 µg/mL
MIC (S. epi. 109): 0.125 µg/mL
MIC (Ent. faecalis D-7F): 0.125 µg/mL
